Key:
MDA-MB-231 = test: Antiproliferative activity against human MDA-MB-231 cells assessed as reduction in cell viability incubated for 72 hrs by MTT assay; format: functional, cell-based; settings: MDA-MB-231, 72 h
[1] = Toxicity in ip dosed mouse assessed as lethal dose; format: organism-based; settings: in vivo
[2] = Toxicity in ip dosed mouse assessed as appearance of loose gray stool; format: organism-based; settings: in vivo
[3] = Toxicity in ip dosed mouse assessed as appearance of messy furs; format: organism-based; settings: in vivo
4T1 = test: Antiproliferative activity against mouse 4T1 cells assessed as reduction in cell viability incubated for 72 hrs by MTT assay; format: functional, cell-based; settings: 4T1, 72 h
[4] = Cytotoxicity against human MCF-10A cells assessed as reduction in cell viability incubated for 72 hrs by MTT assay; format: toxicity, cell-based
[5] = Selectivity index, ratio of IC50 for cytotoxicity against human MCF-10A cells to IC50 for antiproliferative activity against human MDA-MB-231 cells; format: toxicity, cell-based; settings: MCF-10A cells versus MDA-MB-231 cells, read-out: Ratio IC50
[6] = Toxicity in mouse assessed as animal death at >6 mg/kg, ip; format: organism-based; settings: in vivo
[7] = Toxicity in ip dosed mouse assessed as body weight loss; format: organism-based; settings: in vivo

## CC[C@H]1O[C@@]2(C)[C@H](OC(C)=O)[C@@]1(C)O[C@@H](/C=C/C=C/C=C/c1oc(=O)cc(OC)c1C)[C@@H]2O
MDA-MB-231
  IC50: 2.17 µM
[1]
  LD50: 12 mg/kg
[2]
  Activity: Toxic
[3]
  Activity: Toxic
4T1
  IC50: 3.34 µM
[4]
  IC50 at 72 h: > 50 µM
[5]
  selectivity ratio: > 23
[6]
  Activity: Toxic
[7]
  Activity: Toxic
